Measurements as given in paper PMC7018972, “Novel and selective inactivators of Triosephosphate isomerase with anti-trematode activity” (Scientific Reports, 2020).
Entries after “also recorded” stand apart in the source; their conditions may differ. Marks after values point to notes of the source that are not given here.

Tests used:
[1] = system: thioredoxin glutathione reductase; set-up: method as in PMID 22536349; conditions: cited from earlier work
S. mansoni somules = S. mansoni somules phenotypic screen in vitro; assay type: cell-based, Schistosoma mansoni; conditions: for SOMULES SEVERITY SCORE: Table 2S, 10 uM
Source text: (§1) The NMRI isolate of S. mansoni was maintained by passage through Biomphalaria glabrata snails and 3–5 week-old, female Golden Syrian hamsters (Charles River, San Diego, CA) as intermediate and definite hosts, respectively. A dose of 600 infective larvae (cercariae) was used to infect hamsters. The acquisition, preparation and in vitro maintenance of S. mansoni post-infective larvae (schistosomula or somules) and adults have been already described[5],[50],[51]. Vertebrate animal maintenance and handling at the University of California San Diego Animal Care Facility were in accordance with protocols approved by the university’s Institutional Animal Care and Use Committee (IACUC).
Phenotypic screens with somules were performed as described[5],[50],[51]. Initially, 100 μL Basch medium, 100 U/ml penicillin, […] streptomycin, 4% heat-inactivated FBS (Corning Mediatech) and 1 μl compound in DMSO were added to clear, 96-well round-bottomed plates (Costar cat.# 3367). Then, 100 μL of the same medium containing 40–50 somules was added to mix the compound with somules (final concentration of DMSO was 0.5%). Assay plates were placed into plastic boxes humidified with wet tissue and then incubated at 37 °C in a 5% CO2 environment. Somules phenotypes were recorded every 24 h up to 72 h using an inverted microscope (Zeiss Axiovert 40 C).
(§2) Schistosome phenotypic responses were recorded employing a series of ‘descriptors,’ such as rounding, degeneration, overactivity, loss of translucency and changes in motility, as described previously[5],[50],[51],[53]. To allow for comparisons of compound activity, each descriptor was awarded a value of 1 and these were added up to a maximum ‘severity score’ of 4. Evidence of degeneracy or death was awarded the maximum score of 4. Scores were averaged across duplicate wells for each compound (see details in the supporting information).

[2] = system: adult form of F. hepatica; assay: Ex-vivo assay in the adult form of F. hepatica; assay type: cell-based, Fasciola hepatica
Method: F. hepatica were collected from natural infections of cattle obtained from Casablanca slaughterhouse in Paysandú, Uruguay[49]. […] After flukes emptied their gut content (i.e. the gut was not dark anymore) they were transferred to 6 well plates (one fluke per well) with 2 mL of RPMI 1640 media with 200 U/mL Penicillin G sulfate, […] streptomycin sulfate, 500 ng/mL amphotericin B and 10 mM glucose at 37 °C. […] The antiparasitic efficacy was expressed as the percentage reduction of the number of flukes in the treated group compared with the control group.

S. mansoni adults = S. mansoni adults phenotypic screen ex vivo; assay type: cell-based, Schistosoma mansoni; conditions: for ADULTS SEVERITY SCORE: Table 2S, 5 uM
Source text: as §1
Phenotypic screens with 42-day-old, adult parasites were performed in 24-well plates (Costar cat.# 3526) containing the above medium and approximately five adult males and two females per well. Compound was added in a volume of up to 1 μL DMSO at a concentration of 5 µM (0.05% DMSO final). Assay plates were incubated at 37 °C in a 5% CO2 environment. Parasite phenotypes were recorded at 4, 8 and 24 h using a Zeiss Axiovert 40 C.
as §2

NEJ = system: NEJ; set-up: method as in PMID 22536349; conditions: 48 h, fixed dose of 20 µM; cited from earlier work
[3] = Acute oral toxicity (up-and-down); assay type: in vivo; conditions: mice
Method: Briefly, healthy young adult male BALB/c mice (30 days old, 25 to 30 g) were used in this study. […] The animal was fasted, maintained, and observed for 14 days according to the OECD guidelines. If the mouse survived for the first 48 h, another animal received the same dose. If this was repeated, a third animal was dosed with 2,000 mg/kg and also observed for 14 days. The experiment ends at 14 days post-administration, if there are no signs of toxicity, the (LD50) is the administered dose, if not, the software AOT AOT425 Stat program recommendation was followed. […] In parallel, sodium oleate was dissolved in phosphate buffer and left in an orbital shaker for 12 h at room temperature. The former was then added to the evaporated residue, and the mixture was homogenized and placed in an ultrasonic bath at full power for 30 min. The sample was kept at room temperature until use.

## Cc1ccc(-c2nsc(S(=O)(=O)c3ccc(C)cc3)n2)cc1 [Compound 187]
[1]
  inhibition of thioredoxin glutathione reductase in words: moderate inhibitor
S. mansoni somules; Table 2, 24 h, score 0 to maximum 4
  S. mansoni somules severity score: 4 (24 h)^##
S. mansoni somules; 24 h
  SOMULES SEVERITY SCORE: 4
S. mansoni somules; 48 h
  SOMULES SEVERITY SCORE: 4
S. mansoni somules; 3d
  SOMULES SEVERITY SCORE: 4
S. mansoni somules; in the first 24 h
  effect on S. mansoni somules in words: lethal to somules
[2]; after 24 h, 10 µM
  effect on adult F. hepatica in words: death of all the parasites
[2]; first 4 h at 10 µM
  effect on adult F. hepatica in words: parasites were affected
S. mansoni adults; 24 h, 5 µM
  effect on S. mansoni adults in words: decreased the motility of adults and the ability of their oral and ventral suckers to adhere; also recorded: decreased motility and loss of their ventral sucker adherence to the plate floor
S. mansoni adults; 4 h
  ADULTS SEVERITY SCORE: 0
S. mansoni adults; 8 h
  ADULTS SEVERITY SCORE: 0
S. mansoni adults; 24 h
  ADULTS SEVERITY SCORE: 2
NEJ
  effect on NEJ in words: showed effect
[3]
  acute oral toxicity in words: low toxicity
[3]; up-and-down, 14 days
  LD50: ≥ 2000 mg/kg body weight
